Experimental data as given in patent publication US11167014B2, “Solid glp-1 derivative compositions for oral administration” (Novo Nordisk A/S, priority 2017, dated 2021).
“And” between values parts separate entries of the source, which are not always exact repeats. Identical values can stand only once.

Experiments:
Caco-2 cell monolayers = assay: Assay (I): epithelial cell monolayer permeability (transepithelial transport, Papp) and TEER, Caco-2
Procedure: Caco-2 cells were seeded in culturing flasks and passaged in Dulbecco's Modified Eagle' (DMEM) medium supplemented with 10% fetal bovine serum, 1% penicillin/streptomycin (100 U/ml and 100 μg/ml, respectively), 1% L-glutamine and 1% nonessential amino acids. Caco-2 cells were seeded onto tissue culture treated polycarbonate filters in 12-well Corning Transwell plates (1.13 cm^2, 0.4 μm pore size) at a density of 10^5 cells/well.
(§1) Cell monolayers were grown in an atmosphere of 5% CO2-95% O2 at 37° C., replacing growth media every other day. The experiment was performed on day 14-16 after cell seeding.
Before the experiment, cell monolayers were equilibrated for 60 min with transport buffer on both sides of the epithelium. The transport buffer consisted of Hank's balanced saline solution containing 0.1% Ovalbumin (w/v), 0.005% Tween20 (w/w) and 10 mM HEPES, adjusted to pH 7.4. The transport of [^3H]mannitol (PerkinElmer), was measured to verify the integrity of the epithelium.
(§2) Translocation of a given compound across cell layers is expressed as the apparent permeability (Papp), given by:
(§3) [formula] where dQ/dt is the steady-state flux across the cell layer (pmol/s), A is the surface area (1.12 cm^2), and C0 is the initial sample concentration.
Before and after the experiment the transepithelial electrical resistance (TEER) of the cell monolayers was monitored. After experiments, cells were washed twice with buffer and replenished with medium for 24 h TEER recovery to ensure that the cell monolayers were viable and the enhancer effects were transient. The TEER was measured with EVOM™ Epithelial Voltohmmeter connected to Chopsticks. For Caco-2 monolayers the starting TEER was typically around 1000 Ω·cm^2 and for N87 monolayers it was around 1600 Ω·cm^2.

NCI-N87 cell monolayers = assay: Assay (I): epithelial cell monolayer permeability (transepithelial transport, Papp) and TEER, NCI-N87
Procedure: N87 cells were seeded onto tissue culture treated polyester filters in 12-well Corning Transwell plates (1.13 cm^2, 0.4 μm pore size) at a density of 10^5 cells/well.
as §1
The amount of test compound transported from the donor chamber (apical side) to the receiver chamber (basolateral side) was measured as described in [1] for Caco-2 monolayers and in [2] for NCl-N87 cell monolayers, in an atmosphere of 5% CO2-95% O2 at 37° C. on a shaking plate (30 rpm). Before the experiment, cell monolayers were equilibrated for 60 min with transport buffer on both sides of the epithelium. The transport buffer consisted of Hank's balanced saline solution containing 0.1% Ovalbumin (w/v), 0.005% Tween20 (w/w) and 10 mM HEPES, adjusted to pH 7.4. The transport of [^3H]mannitol (PerkinElmer), was measured to verify the integrity of the epithelium.
as §2, §3
Before and after the experiment the transepithelial electrical resistance (TEER) of the cell monolayers was monitored. After experiments, cells were washed twice with buffer and replenished with medium for 24 h TEER recovery to ensure that the cell monolayers were viable and the enhancer effects were transient. The TEER was measured with EVOM™ Epithelial Voltohmmeter connected to Chopsticks.

[1] = Caco-2, experiments of Tables 9-10 (semaglutide, FD4)
[2] = Caco-2, experiment of Table 1 (semaglutide)
[3] = Caco-2, experiment of Table 2 (Compound B)
[4] = Caco-2, experiment of Table 5 (FD4)
[5] = NCI-N87, experiment of Table 3 (semaglutide)
[6] = NCI-N87, experiment of Table 4 (FD4)

| effect alone on Compound B permeability (Caco-2 cell monolayers; 0.5-2.0 mM dapagliflozin, Caco-2 cell monolayers) | dapagliflozin concentration for which non-recovering TEER was observed (Caco-2 cell monolayers; Caco-2, 24 h in fresh medium) | dapagliflozin concentration for which non-recovering TEER was observed (NCI-N87 cell monolayers; NCI-N87, 24 h in fresh medium) [mM] | Compound | transient decrease in cell monolayer TEER down to % of starting values (Caco-2 cell monolayers; [1]) | transient decrease in cell monolayer TEER down to % of starting values (Caco-2 cell monolayers; [2]) | transient decrease in cell monolayer TEER down to % of starting values (Caco-2 cell monolayers; [3]) | transient decrease in cell monolayer TEER down to % of starting values (Caco-2 cell monolayers; [4]) | transient decrease in cell monolayer TEER down to % of starting values (NCI-N87 cell monolayers; [5]) | transient decrease in cell monolayer TEER down to % of starting values (NCI-N87 cell monolayers; [6]) |
| --- | --- | --- | --- | --- | --- | --- | --- | --- | --- |
|  |  |  | OC[C@H]1O[C@@H](c2ccc(Cl)c(Cc3ccc(O[C@H]4CCOC4)cc3)c2)[C@H](O)[C@@H](O)[C@@H]1O [empagliflozin] | ~35 % of starting values |  |  |  |  |  |
| negligible effect | > 2.7 mM and 3 mM | > 2.6 | CCOc1ccc(Cc2cc([C@@H]3O[C@H](CO)[C@@H](O)[C@H](O)[C@H]3O)ccc2Cl)cc1 [dapagliflozin] |  | ~25 % of starting values | ~25 % of starting values | ~35 % of starting values | ~20 % of starting values | ~25 % of starting values |
|  |  |  | O=C(O)CCCCCCCNC(=O)c1ccccc1O [SNAC, sodium N-(8-(2-hydroxybenzoyl)amino)caprylate] | ~35 % of starting values | ~25 % of starting values | ~25 % of starting values | ~35 % of starting values | ~20 % of starting values | ~25 % of starting values |
